Active and inactive are the calls of the source. The rule behind the calls is not given here.
Assays:
[1] = target: Exportin-1 (Homo sapiens) (UniProt O14980); assay: Inhibition of CRM1-mediated nuclear export of Rio2 in human HeLa cells at 2 uM; format: cell-based
[2] = target: Exportin-1 (Homo sapiens) (UniProt O14980); assay: Inhibition of CRM1-mediated nuclear export of Rio2 in human HeLa cells at 1 uM; format: cell-based
MDA-MB-231 [3] = assay: Cytotoxicity against human MDA-MB-231 cells; format: functional, cell-based
MDA-MB-231 [4] = assay: Induction of apoptosis in human MDA-MB-231 cells; format: functional, cell-based

Sequence of Exportin-1 (Homo sapiens) (O14980 whole entry): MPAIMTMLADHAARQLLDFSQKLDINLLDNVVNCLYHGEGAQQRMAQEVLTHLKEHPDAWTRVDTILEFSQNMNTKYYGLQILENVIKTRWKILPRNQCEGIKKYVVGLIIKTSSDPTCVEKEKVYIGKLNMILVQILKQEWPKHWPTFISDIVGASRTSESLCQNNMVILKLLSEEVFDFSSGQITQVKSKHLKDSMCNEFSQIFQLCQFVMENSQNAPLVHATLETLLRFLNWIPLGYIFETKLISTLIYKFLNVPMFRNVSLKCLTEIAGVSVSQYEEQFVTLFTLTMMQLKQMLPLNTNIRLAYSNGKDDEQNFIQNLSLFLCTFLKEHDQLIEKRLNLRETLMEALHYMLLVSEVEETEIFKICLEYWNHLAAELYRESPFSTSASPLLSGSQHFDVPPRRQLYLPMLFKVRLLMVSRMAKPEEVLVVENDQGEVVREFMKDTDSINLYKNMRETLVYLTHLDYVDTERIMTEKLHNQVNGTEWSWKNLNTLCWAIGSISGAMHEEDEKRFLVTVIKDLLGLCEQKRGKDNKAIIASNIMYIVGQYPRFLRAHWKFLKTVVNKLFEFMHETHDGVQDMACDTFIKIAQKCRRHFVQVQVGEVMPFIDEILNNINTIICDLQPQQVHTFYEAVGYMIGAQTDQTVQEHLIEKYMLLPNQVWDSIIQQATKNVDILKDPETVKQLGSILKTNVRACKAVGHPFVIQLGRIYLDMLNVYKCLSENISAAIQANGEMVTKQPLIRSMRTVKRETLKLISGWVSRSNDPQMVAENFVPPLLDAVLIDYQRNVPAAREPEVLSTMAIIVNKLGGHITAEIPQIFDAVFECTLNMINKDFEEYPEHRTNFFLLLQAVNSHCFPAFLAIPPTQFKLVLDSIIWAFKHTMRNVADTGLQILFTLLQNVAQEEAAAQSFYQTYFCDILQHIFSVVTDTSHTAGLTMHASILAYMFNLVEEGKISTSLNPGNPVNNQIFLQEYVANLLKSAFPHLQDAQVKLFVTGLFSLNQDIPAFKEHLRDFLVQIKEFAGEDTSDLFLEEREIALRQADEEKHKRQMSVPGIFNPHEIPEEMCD

Row | inhibition [1] | inhibition [2] | SMILES | IC50 (MDA-MB-231 [3]) [nM] | Activity (MDA-MB-231 [4])
1 | inactive |  | O=C1C=CC[C@H](Cc2ccccc2)O1 |  | 
2 | inactive |  | O=C1C=CC[C@H](c2ccccc2)O1 |  | 
3 | inactive |  | O=C1C=CC[C@H](c2ccc(-c3ccccc3)cc2)O1 |  | 
4 |  | Active | O=C1C=CC[C@H](/C=C/c2ccccc2)O1 [GONIOTHALAMIN] | 1460 | Active
5 | inactive |  | O=C1C=CC[C@H](C#C/C=C/c2ccccc2)O1 |  | 

Reference: ChEMBL document CHEMBL1158550, “The cytotoxic styryl lactone goniothalamin is an inhibitor of nucleocytoplasmic transport” (Bioorg Med Chem Lett, 2010)
